Results from ChEMBL document CHEMBL2203179, “New diarylureas and diarylamides possessing acet(benz)amidophenyl scaffold: design, synthesis, and antiproliferative activity against melanoma cell line” (Bioorg Med Chem Lett, 2012).

What was measured:
[1] = Antiproliferative activity against human A375P cells; type: functional, cell-based
[2] = Ratio of IC50 for vemurafenib IC50 to compound IC50 for human A375P cells; type: functional

Structure (SMILES)	IC50 [1] [µM]	Ratio IC50 [2]
Cc1ccc(NC(=O)Nc2ccc(C)c(NC(=O)c3ccccc3)c2)cc1C	> 30	
Cc1ccc(NC(=O)Nc2ccccc2Cl)cc1NC(=O)c1ccccc1	> 30	
Cc1ccc(NC(=O)Nc2ccc(Cl)c(Cl)c2)cc1NC(=O)c1ccccc1	5.8	
Cc1ccc(NC(=O)Nc2cc(Cl)cc(Cl)c2)cc1NC(=O)c1ccccc1	0.259	
Cc1ccc(NC(=O)Nc2cc(C(F)(F)F)cc(C(F)(F)F)c2)cc1NC(=O)c1ccccc1	0.162	1.57
Cc1ccc(NC(=O)Nc2ccc(Cl)c(C(F)(F)F)c2)cc1NC(=O)c1ccccc1	1.3	
Cc1ccc(NC(=O)Nc2cc(F)cc(C(F)(F)F)c2)cc1NC(=O)c1ccccc1	> 30	
CC(=O)c1cccc(NC(=O)Nc2ccc(C)c(NC(=O)c3ccccc3)c2)c1	9.8	
Cc1ccc(NC(=O)Nc2cccc(Oc3ccccc3)c2)cc1NC(=O)c1ccccc1	> 30	
Cc1ccc(NC(=O)Nc2ccc3c(c2)OCO3)cc1NC(=O)c1ccccc1	> 30	
Cc1ccc(NC(=O)Nc2ccc3c(c2)OCCO3)cc1NC(=O)c1ccccc1	> 30	
Cc1ccc(NC(=O)Nc2ccc(Cl)nc2)cc1NC(=O)c1ccccc1	1.6	
CC(=O)Nc1cc(NC(=O)c2cc(C(F)(F)F)cc(C(F)(F)F)c2)ccc1C	> 30	
CC(=O)Nc1cc(NC(=O)c2ccc(Cl)c(C(F)(F)F)c2)ccc1C	> 30	
CC(=O)Nc1cc(NC(=O)c2ccc3c(c2)OCCO3)ccc1C	12.9	
CC(=O)Nc1cc(NC(=O)c2cc(C)on2)ccc1C	> 30	
CC(=O)Nc1cc(NC(=O)c2cc(=O)c3ccccc3o2)ccc1C	> 30	
Cc1ccc(NC(=O)c2cc(C(F)(F)F)cc(C(F)(F)F)c2)cc1NC(=O)c1ccccc1	> 30	

Structure (SMILES)	IC50 [1] [µM]	Ratio IC50 [2]
Cc1ccc(NC(=O)c2ccc(Cl)c(C(F)(F)F)c2)cc1NC(=O)c1ccccc1	> 30	
Cc1ccc(NC(=O)c2ccc3c(c2)OCCO3)cc1NC(=O)c1ccccc1	> 30	
Cc1cc(C(=O)Nc2ccc(C)c(NC(=O)c3ccccc3)c2)no1	> 30	
Cc1ccc(NC(=O)c2cc(=O)c3ccccc3o2)cc1NC(=O)c1ccccc1	> 30	
CC(=O)Nc1cc(NC(=O)Nc2ccccc2Cl)ccc1C	> 30	
CC(=O)Nc1cc(NC(=O)Nc2ccc(Cl)c(Cl)c2)ccc1C	2.1	
CC(=O)Nc1cc(NC(=O)Nc2cc(Cl)cc(Cl)c2)ccc1C	0.561	
CC(=O)Nc1cc(NC(=O)Nc2cc(C(F)(F)F)cc(C(F)(F)F)c2)ccc1C	0.685	
CC(=O)Nc1cc(NC(=O)Nc2ccc(Cl)c(C(F)(F)F)c2)ccc1C	1.1	
CC(=O)Nc1cc(NC(=O)Nc2cc(F)cc(C(F)(F)F)c2)ccc1C	> 30	
CC(=O)Nc1cc(NC(=O)Nc2ccc(C)c(C)c2)ccc1C	> 30	
CC(=O)Nc1cc(NC(=O)Nc2cccc(C(C)=O)c2)ccc1C	22.1	
CC(=O)Nc1cc(NC(=O)Nc2cccc(Oc3ccccc3)c2)ccc1C	> 30	
CC(=O)Nc1cc(NC(=O)Nc2ccc3c(c2)OCO3)ccc1C	> 30	
CC(=O)Nc1cc(NC(=O)Nc2ccc3c(c2)OCCO3)ccc1C	> 30	
CC(=O)Nc1cc(NC(=O)Nc2ccc(Cl)nc2)ccc1C	1.1	
CNC(=O)c1cc(Oc2ccc(NC(=O)Nc3ccc(Cl)c(C(F)(F)F)c3)cc2)ccn1 [SORAFENIB]	2.7	
